From US10881699B2, “Cosmetic compositions” (Mary Kay Inc., priority 2014, dated 2021)

How the values were obtained:
MMP3 = target: T1, MMP3 (Homo sapiens, UniProt P08254); assay: Matrix metalloproteinase enzyme activity assay, MMP3; type: biochemical; conditions: thiopeptide chromogenic substrate
T1 construct: purchased BioMol International AK-400
Excerpt: (§1) Matrix Metalloproteinase Enzyme Activity (MMP3; MMP9) Assay: An in vitro matrix metalloprotease (MMP) inhibition assay. MMPs are extracellular proteases that play a role in many normal and disease states by virtue of their broad substrate specificity. MMP3 substrates include collagens, fibronectins, and laminin; while MMP9 substrates include collagen VII, fibronectins and laminin. Using Colorimetric Drug Discovery kits from BioMol International for MMP3 (AK-400) and MMP-9 (AK-410), this assay is designed to measure protease activity of MMPs using a thiopeptide as a chromogenic substrate (Ac-PLG42-mercapto-4-methyl-pentanoylRG-OC2H5)5,6. The MMP cleavage site peptide bond is replaced by a thioester bond in the thiopeptide. Hydrolysis of this bond by an MMP produces a sulfhydryl group, which reacts with DTNB [5,5′-dithiobis(2-nitrobenzoic acid), Ellman's reagent] to form 2-nitro-5-thiobenzoic acid, which can be detected by its absorbance at 412 nm (c=13,600 M-1 cm-1 at pH 6.0 and above 7). The active ingredients, any one of the combination of ingredients, or compositions having said combinations disclosed in the specification can be assayed.

MMP9 = target: T2, MMP9 (Homo sapiens, UniProt P14780); assay: Matrix metalloproteinase enzyme activity assay, MMP9; type: biochemical; conditions: thiopeptide chromogenic substrate
T2 construct: purchased BioMol International AK-410
Excerpt: as §1

[1] = tested on: procollagen peptide production by human epidermal fibroblasts; assay: Collagen stimulation assay, procollagen peptide ELISA; type: cell-based; conditions: treated for 3 days
Excerpt: Collagen Stimulation Assay:
Collagen is an extracellular matrix protein critical for skin structure. Increased synthesis of collagen helps improve skin firmness and elasticity. This bioassay can be used to examine the effect of any one of the active ingredients, combination of ingredients, or compositions having said combinations disclosed in the specification on the production of procollagen peptide (a precursor to collagen) by human epidermal fibroblasts. The endpoint of this assay is a spectrophotometric measurement that reflects the presence of procollagen peptide and cellular viability. The assay employs the quantitative sandwich enzyme immunoassay technique whereby a monoclonal antibody specific for procollagen peptide was been pre-coated onto a microplate. […] Following a wash to remove any unbound antibody-enzyme reagent, a substrate solution was added to the wells and color develops in proportion to the amount of procollagen peptide bound in the initial step using a microplate reader for detection at 450 nm. The color development was stopped and the intensity of the color was measured. […] Following incubation, cell culture medium was collected and the amount of procollagen peptide secretion quantified using a sandwich enzyme linked immuno-sorbant assay (ELISA) from Takara (#MK101).

T1 sequence (P08254 100-272 limits assumed): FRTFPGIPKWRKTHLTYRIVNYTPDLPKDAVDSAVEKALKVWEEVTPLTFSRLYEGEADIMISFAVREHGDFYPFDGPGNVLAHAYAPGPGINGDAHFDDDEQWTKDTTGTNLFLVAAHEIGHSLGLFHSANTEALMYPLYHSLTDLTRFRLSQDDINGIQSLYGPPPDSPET
T2 sequence (P14780 107-444 limits assumed): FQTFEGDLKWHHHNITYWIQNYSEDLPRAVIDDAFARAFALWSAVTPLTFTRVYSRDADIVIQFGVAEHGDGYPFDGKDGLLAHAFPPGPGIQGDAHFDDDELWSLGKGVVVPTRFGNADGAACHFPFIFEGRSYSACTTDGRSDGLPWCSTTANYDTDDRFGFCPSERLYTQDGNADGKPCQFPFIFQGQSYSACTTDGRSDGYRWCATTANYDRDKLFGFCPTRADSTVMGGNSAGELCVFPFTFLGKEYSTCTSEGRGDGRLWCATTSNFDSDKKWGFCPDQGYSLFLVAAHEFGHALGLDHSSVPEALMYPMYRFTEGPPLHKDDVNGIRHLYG

% MMP3 Activity (MMP3) | % MMP9 Activity (MMP9) | Molecule | % Increase of Type I Collagen Production [1]
38% | 11% | CCCCCCCCC(CCCCCC)C(=O)OC[C@H](OC(=O)C(CCCCCC)CCCCCCCC)[C@H]1OC(=O)C(OC(=O)C(CCCCCC)CCCCCCCC)=C1OC(=O)C(CCCCCC)CCCCCCCC (stereo partly shown) [Tetrahexyldecyl ascorbate] | 50%
 |  | Trifluoroacetyl tripeptide-2 | 23%
